These are literature values, as cited in patent US20230398128A1, “PREFERRED ORAL TESTOSTERONE UNDECANOATE THERAPY TO ACHIEVE TESTOSTERONE REPLACEMENT TREATMENT” (Marius Pharmaceuticals LLC, priority 2021, published 2023).

The conditions of the data set: for increase in ambulatory SBP: previous testosterone studies.

Take `CCCCCCC(=O)O[C@H]1CC[C@H]2[C@@H]3CCC4=CC(=O)CC[C@]4(C)[C@H]3CC[C@]12C` [testosterone enanthate]: the “increase in ambulatory SBP” value is 3.7 mmHg.
On to `CCCCCCCCCCC(=O)O[C@H]1CC[C@H]2[C@@H]3CCC4=CC(=O)CC[C@]4(C)[C@H]3CC[C@]12C` [testosterone undecanoate (oral), testosterone undecanoate], for which the “increase in ambulatory SBP” value is reported as 4.9 mmHg. Moreover, the “increase in ambulatory systolic BP” value (previously reported study, subjects receiving antihypertensive medication) is on record as 5.5 mmHg.
